Results taken from the supplement of paper PMC10307832.

Columns and labels:
Assay in all cases: relative viability (nuclei count vs DMSO), 5 days (fraction); higher = more cells survive
BAM7 + Pictilisib = compound: CCOC1=CC=CC=C1N=NC2=C(NN(C2=O)C3=NC(=CS3)C4=CC=CC=C4)C [BAM7] + CS(=O)(=O)N1CCN(Cc2cc3nc(-c4cccc5[nH]ncc45)nc(N4CCOCC4)c3s2)CC1 [Pictilisib] (partner 1 µM)
Method in brief: (§1)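 A single step with final 0.05% Triton X-100, 1% formaldehyde and 1 ug/ml Hoechst fixed the cells and stained nuclei 5 days after treatment. Lung cancer cell lines in 1536-well plates had been treated by pin tool the day after seeding with one drug alone or a fixed anchor-drug dose plus five library-drug doses (not always all listed) in √10 steps, and nuclei were counted on 4× images. Relative viability is the ratio of nuclei in treated wells to nuclei in vehicle wells, taken as the median of duplicate plates.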

[1] = compound: CCn1c(-c2nonc2N)nc2c(C#CC(C)(C)O)ncc(OC[C@H]3CCCNC3)c21 + C[C@]1(O)C[C@@H](c2nc(-c3ccc4ccc(-c5ccccc5)nc4c3)c3c(N)nccn32)C1 [Linsitinib] (partner 1 µM)
Method in brief: as §1

[2] = compound: CCn1c(-c2nonc2N)nc2c(C#CC(C)(C)O)ncc(OC[C@H]3CCCNC3)c21 + O=C(CCCCCCC(=O)Nc1ccccc1)NO [Vorinostat] (partner 1 µM)
Method in brief: as §1

[3] = compound: CCn1c(-c2nonc2N)nc2c(C#CC(C)(C)O)ncc(OC[C@H]3CCCNC3)c21 + O=C(c1cc(Cc2n[nH]c(=O)c3ccccc23)ccc1F)N1CCN(C(=O)C2CC2)CC1 [Olaparib] (partner 8 µM)
Method in brief: as §1

Question: What does the source list for UMC-11?
Answer: relative viability (BAM7 + Pictilisib; first compound 0.5 µM): 0.856; relative viability (BAM7 + Pictilisib; first compound 5 µM): 0.897; relative viability (BAM7 + Pictilisib; first compound 15.81 µM): 0.85; relative viability (BAM7 + Pictilisib; first compound 50 µM): 0.892; relative viability ([1]; first compound 0.01 µM): 0.991; relative viability ([1]; first compound 0.03162 µM): 1.05; relative viability ([1]; first compound 0.1 µM): 0.974; relative viability ([1]; first compound 0.3162 µM): 0.976; relative viability ([1]; first compound 1 µM): 1.04; relative viability ([2]; first compound 0.01 µM): 0.423; relative viability ([2]; first compound 0.03162 µM): 0.375; relative viability ([2]; first compound 0.1 µM): 0.357; relative viability ([2]; first compound 0.3162 µM): 0.316; relative viability ([2]; first compound 1 µM): 0.346; relative viability ([3]; first compound 0.01 µM): 0.402; relative viability ([3]; first compound 0.03162 µM): 0.391; relative viability ([3]; first compound 0.1 µM): 0.655; relative viability ([3]; first compound 0.3162 µM): 0.392; relative viability ([3]; first compound 1 µM): 0.359
